Measured values from US5219839A, “Adenosine derivatives, their methods of preparation and pharmaceutical compositions in which they are present” (Laboratories UPSA, priority 1992, dated 1993).

What was measured:
A1 receptors = biological target: T1, A1 receptors (Rattus norvegicus, UniProt P25099); experiment: Binding to adenosine A1 receptors: competitive displacement of [^3 H] PIA, rat brain membranes; settings: [^3 H] PIA 2.5 nM, n=3; for inhibition at 10 µM: 10^-5 M, read-out: % displacement of the labeled ligand, A1, 1E-5M; for % displacement of the labeled ligand, A1, 1E-7M: 10^-7 M, 0.1 µM
T1 construct: the brain is quickly removed and washed in cold isotonic solution; from tissue; host or cells: rat brain hemispheres (membrane homogenate)
T1 sequence (P25099 1-326): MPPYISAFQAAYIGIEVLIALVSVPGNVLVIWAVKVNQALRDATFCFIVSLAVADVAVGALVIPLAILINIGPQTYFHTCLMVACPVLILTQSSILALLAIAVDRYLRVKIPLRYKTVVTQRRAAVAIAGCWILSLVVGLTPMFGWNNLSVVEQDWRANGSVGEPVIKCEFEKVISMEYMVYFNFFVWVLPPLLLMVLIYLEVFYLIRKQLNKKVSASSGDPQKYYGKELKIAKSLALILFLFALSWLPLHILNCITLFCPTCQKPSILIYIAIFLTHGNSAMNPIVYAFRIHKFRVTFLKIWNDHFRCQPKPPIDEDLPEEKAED
Description: (§1) The affinity of the products of the Examples for the rat central A1 and A2 adenosinergic receptors is determined by the competitive technique using a radioactive ligand specifically bound either to the A1 receptors ([^3 H] PIA) or to the A2 receptors ([^3 H] NECA).
After the animal has been sacrificed by decapitation, the brain is quickly removed and washed in cold isotonic solution. The two hemispheres are separated and weighed and each of them is introduced into a polyallomer tube containing 25 volumes of cold homogenization buffer. Homogenization is effected using an Ultra-Turrax for 30 seconds (3 times 10 seconds with 10-second intervals, 70% of the maximum speed). The ground material obtained is centrifuged at 1000 g (≈3000 rpm) for 10 minutes at 4° C.
The supernatant is centrifuged again at 48,000 g (≈20,000 rpm) for 20 minutes at 4° C.
When this step is complete, the residue is taken up with 4 volumes of homogenization buffer, resuspended using a Vortex and homogenized with the Ultra-Turrax. Adenosine deaminase is then added at a rate of 1 U/ml, i.e. 1 μl/ml of homogenate, using a 10 μl Hamilton syringe.
After this treatment, the homogenate is shaken for 30 minutes at room temperature and then centrifuged at […] (≈20,000 rpm) for 30 minutes at 4° C.
The residue obtained is resuspended in 10 volumes of homogenization buffer and passed through the Ultra-Turrax for 20 seconds (2 times 10 seconds with a 10-second interval, 70% of the maximum speed).
The homogenate prepared in this way is used for the competitive tests. It is kept at 4° C. if the studies take place the same day, or stored at -20° C. in the form of 10 ml aliquots.
After the homogenate has been thawed at room temperature, it is passed through a Potter homogenizer (6 manual to-and-fro movements, speed 6), diluted to 2/5 in incubation buffer and placed in a water bath thermostated at 4° C., with shaking, until the end of the experiment.
(§2) 50 μl of [^3 H] PIA at 100 nM, i.e. 2.5 nM in the final reaction medium allowing for the 1/40 dilution, and 50 μl of the product of the Example at the concentrations considered (10^-5 M and 10^-7 M) are introduced into the reaction tubes. The reaction is initiated by the addition of 1 ml of homogenate and 900 μl of incubation buffer. The procedure is identical for all the beta-blockers studied.
(§3) The tubes are shaken and incubated in a water bath at 20° C. for 30 minutes. When the incubation is complete, the contents of the tubes are filtered on Whatman GF/B paper. Each tube is washed twice with 2 ml of rinsing buffer and then the filters themselves are rinsed with 3 ml of this same buffer.
The filters are then transferred to counting flasks and 10 ml of liquid scintillator (Ready Solv HP/b, Beckman) are added.
After they have been shaken, the flasks are stored in a refrigerator overnight and the radioactivity is then determined in a liquid scintillation counter.
(§4) 3 tests are performed for each concentration studied. The non-specific binding of the [^3 H] PIA is assessed by measuring the amount of radioactivity retained on the filter in the presence of 10^-5 M phenylisopropyladenosine (PIA). The value of the non-specific binding is systematically subtracted from that of the tests.
(§5) The results are expressed for each product in the form of the percentage displacement (n=3) of the labeled radioligand at concentrations of 10^-5 M and 10^-7 M.

[1] = system: twisting and stretching movements in mice; experiment: Phenylbenzoquinone test (analgesic activity); assay type: in vivo; settings: p.o., one hour before phenylbenzoquinone i.p., 5 minutes observation
Description: The intraperitoneal injection of phenylbenzoquinone causes twisting and stretching movements in mice. Analgesics prevent or reduce this syndrome, which can be considered as the exteriorization of diffuse abdominal pain.
A 0.02% solution of phenylbenzoquinone in water is administered in a volume of 1 ml/100 g.
The products of the Examples are administered orally one hour before the injection of phenylbenzoquinone.
The stretching and twisting movements are counted for each mouse over an observation period of 5 minutes.

A2 receptors = biological target: T2, A2 receptors (Rattus norvegicus, UniProt P30543); experiment: Binding to adenosine A2 receptors: competitive displacement of [^3 H] NECA, rat striatum membranes; settings: [^3 H] NECA 4 nM, n=3; for % displacement of the labeled ligand, A2, 1E-5M: 10 µM; for % displacement of the labeled ligand, A2, 1E-7M: 10^-7 M, 0.1 µM
T2 construct: The two hemispheres are separated and the striatum is removed from each of them (Bruns et al., 1986); from tissue; host or cells: rat striatum (membrane homogenate)
Description: as §1
After decapitation of the animal, the brain is quickly removed and washed in cold isotonic solution. The two hemispheres are separated and the striatum is removed from each of them (Bruns et al., 1986), weighed and introduced into a polyallomer tube containing 10 volumes of cold homogenization buffer. The tissue is homogenized with an Ultra-Turrax for 30 seconds (3 times 10 seconds with 10-second intervals, 70% of the maximum speed). The ground material is centrifuged at 50,000 g (≈20,500 rpm) for 10 minutes at 4° C.
The residue obtained is resuspended in 10 volumes of homogenization buffer using a Vortex and homogenized with the Ultra-Turrax (5 to 10 seconds, 70% of the maximum speed).
Adenosine deaminase is then added at a rate of 1 U/ml, i.e. 1 μl/ml of homogenate, using a 10 μl Hamilton syringe. The homogenate treated in this way is shaken at room temperature for 30 minutes.
When the incubation is complete, the homogenate is centrifuged at 50,000 g (≈20,500 rpm) for 10 minutes at 4° C.
The residue is taken up with 5 volumes of cold homogenization buffer and passed through the Ultra-Turrax (2 times 10 seconds with a 10-second interval, 70% of the maximum speed) and the homogenate prepared in this way is finally frozen at -70° C.
After the homogenate has been thawed at room temperature, 15 volumes of incubation buffer are added. The homogenate is shaken on a Vortex, passed through a Potter homogenizer (6 to-and-fro movements, speed 6), diluted to 1/10 in incubation buffer and finally placed in a water bath thermostated at 4° C., with shaking, until the end of the experiment.
as §2, with “NECA” for “PIA”, “160” for “100”, “4” for “2.5”, “similar” for “identical”, “compounds” for “beta-blockers”
as §3, with “25°” for “20°”, “60” for “30”, “buffer before being transferred to counting flasks.” for “buffer.”
10 ml of liquid scintillator (Ready Solv HP/b, Beckman) are added to all the flasks. These are shaken and stored in a refrigerator overnight. The radioactivity is determined in a liquid scintillation counter.
as §4, with “NECA” for “PIA”, “determined” for “assessed”, “5 μM N-ethylcarboxamidoadenosine (NECA).” for “10^-5 M phenylisopropyladenosine (PIA).”
as §5

T2 sequence (P30543 whole entry): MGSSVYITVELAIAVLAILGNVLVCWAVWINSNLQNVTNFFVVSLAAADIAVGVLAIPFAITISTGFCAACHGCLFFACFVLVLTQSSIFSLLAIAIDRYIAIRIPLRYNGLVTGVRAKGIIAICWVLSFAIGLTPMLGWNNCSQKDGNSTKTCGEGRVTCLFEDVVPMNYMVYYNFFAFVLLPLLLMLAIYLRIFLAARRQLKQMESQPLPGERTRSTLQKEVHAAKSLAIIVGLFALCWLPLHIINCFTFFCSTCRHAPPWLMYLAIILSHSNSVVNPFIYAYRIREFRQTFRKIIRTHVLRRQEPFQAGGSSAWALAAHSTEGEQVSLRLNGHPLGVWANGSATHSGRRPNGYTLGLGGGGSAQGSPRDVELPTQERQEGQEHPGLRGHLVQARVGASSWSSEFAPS

| SMILES | inhibition at 10 µM (A1 receptors) [%] | % displacement of the labeled ligand, A1, 1E-7M (A1 receptors) [%] | Phenylbenzoquinone test 50% inhibitory dose [1] | % displacement of the labeled ligand, A2, 1E-5M (A2 receptors; 10^-5 M) [%] | % displacement of the labeled ligand, A2, 1E-7M (A2 receptors) [%] | inhibition at 10 µM (A2 receptors; 10^-5 M, read-out: % displacement of the labeled ligand, A2, 1E-5M) [%] |
| --- | --- | --- | --- | --- | --- | --- |
| O=C(NC1CC1)[C@H]1O[C@@H](n2cnc3c(NCC4CC4(c4ccccc4)c4ccccc4)ncnc32)[C@H](O)[C@@H]1O (single isomer, unassigned) [Example 44, β-D-Ribofuranuronamido-N-cyclopropyl-1-deoxy-1-[6-[(-)-[[2,2-diphenylcyclopropyl]methyl]amino]-9H-purin-9-yl]] | 90 | 10 | ≈ 1 mg/kg | 100 | 19 | – |
| CCNC(=O)[C@H]1O[C@@H](n2cnc3c(NCC4CC4(c4ccccc4)c4ccccc4)ncnc32)[C@H](O)[C@@H]1O (single isomer, unassigned) [Example 48, β-D-Ribofuranuronamido-N-ethyl-1-deoxy-1-[6-[(+)-[[2,2-diphenylcyclopropyl]methyl]amino]-9H-purin-9-yl]] | 99 | 54 | 0.3 mg/kg | – | 71 | 92 |
| CCNC(=O)[C@H]1O[C@@H](n2cnc3c(NCC4CC4(c4ccccc4)c4ccccc4)ncnc32)[C@H](O)[C@@H]1O (single isomer, unassigned) [Example 49, β-D-Ribofuranuronamido-N-ethyl-1-deoxy-1-[6-[(-)-[[2,2-diphenylcyclopropyl]methyl]amino]-9H-purin-9-yl]] | 93 | 15 | 0.7 mg/kg | 86 | 0 | – |
